Assays:
[1] = molecular target: α-amylase from Pyrococcus woesei (partially purified) (Pyrococcus woesei, UniProt Q7LYT7); experiment: biochemical; conditions: 40 min, pH 5.5, read-out: enzyme activity measured in percent
Method: The influence of metal cations and EDTA on the activity of α-amylase from P. woesei was performed with enzyme which was partially purified by gelfiltration on a Supsrose 12 column (Pharmacia, Sweden), see Table 2. The fractions containing α-amylase were collected and concentrated 4-fold. 25 μl of enzyme (400 U/l) were added to 100 μl of sodium acetate buffer (50 mM, pH 5.5) containing 1% (w/v) starch. Metal cations, which were dissolved in sodium acetate buffer (100 mM, pH 5.5), were added in various concentrations. Incubation was conducted in a glycerin bath (100° C.) for 40 min. The reducing sugars were finally detected as described by Bergmeyer and Grassi (supra). The values represent the enzyme activity measured in percent.

[2] = molecular target: extracellular α-amylase from Pyrococcus furiosus (partially purified) (Pyrococcus furiosus, UniProt Q8U3I9); conditions: EDTA concentration not given
Method: In order to conduct physiochemical investigations the extracellular amylase was partially purified by gelfiltration. All experiments were performed in the absence of metal ions and under aerobic conditions.

Chain of α-amylase from Pyrococcus woesei (partially purified) (Q7LYT7 26-460): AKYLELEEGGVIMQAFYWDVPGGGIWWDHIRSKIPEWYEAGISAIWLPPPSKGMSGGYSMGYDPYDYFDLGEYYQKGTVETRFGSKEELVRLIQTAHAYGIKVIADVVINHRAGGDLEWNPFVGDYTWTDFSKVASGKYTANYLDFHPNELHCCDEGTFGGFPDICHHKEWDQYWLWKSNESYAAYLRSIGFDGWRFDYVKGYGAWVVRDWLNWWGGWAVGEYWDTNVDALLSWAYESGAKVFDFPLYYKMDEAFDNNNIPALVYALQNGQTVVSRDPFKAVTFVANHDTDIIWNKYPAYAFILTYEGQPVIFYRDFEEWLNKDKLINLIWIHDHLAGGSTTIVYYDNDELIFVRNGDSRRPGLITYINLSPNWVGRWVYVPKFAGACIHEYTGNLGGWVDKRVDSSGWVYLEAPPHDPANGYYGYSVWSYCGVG
Chain of extracellular α-amylase from Pyrococcus furiosus (partially purified) (Q8U3I9 39-473): as the sequence (Q7LYT7 26-460) above

O=C(O)CN(CCN(CC(=O)O)CC(=O)O)CC(=O)O [EDTA]
remaining activity at 1000 µM [1]: 95% | remaining activity at 2000 µM [1]: 85% | remaining activity at 5000 µM [1]: 60% | influence on amylase activity [2]: did not have any influence

— US5370997A, “Hyperthermostable alpha-amylase” (Novo Nordisk A/S, priority 1989, dated 1994)
